What all share (test): relative viability (nuclei count vs DMSO), 5 days (fraction); higher = more cells survive
Compound in the experiment “Carfilzomib + Dasatinib”: CC(C)C[C@H](NC(=O)[C@H](CCc1ccccc1)NC(=O)CN1CCOCC1)C(=O)N[C@@H](Cc1ccccc1)C(=O)N[C@@H](CC(C)C)C(=O)[C@@]1(C)CO1 [Carfilzomib] + Cc1nc(Nc2ncc(C(=O)Nc3c(C)cccc3Cl)s2)cc(N2CCN(CCO)CC2)n1 [Dasatinib] (partner 0.075 µM)
The method in brief:
(§1)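 Values are medians from duplicate plates. Each reflects relative viability, defined as the nuclei count of treated wells over that of vehicle wells. Lung cancer cell lines in 1536-well plates were pin-tool dosed one day after seeding with one drug alone or with a fixed anchor-drug dose plus five library-drug doses (not always all listed) in √10 steps, then fixed, stained and imaged at 4× after 5 days.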

Compound in the experiment “Crizotinib + Trametinib”: C[C@@H](Oc1cc(-c2cnn(C3CCNCC3)c2)cnc1N)c1c(Cl)ccc(F)c1Cl [Crizotinib] + CC(=O)Nc1cccc(-n2c(=O)n(C3CC3)c(=O)c3c(Nc4ccc(I)cc4F)n(C)c(=O)c(C)c32)c1 [Trametinib] (partner 0.02 µM)
An outline of the steps:
as §1

Compound in the experiment “Crizotinib + Navitoclax”: C[C@@H](Oc1cc(-c2cnn(C3CCNCC3)c2)cnc1N)c1c(Cl)ccc(F)c1Cl [Crizotinib] + CC1(C)CCC(c2ccc(Cl)cc2)=C(CN2CCN(c3ccc(C(=O)NS(=O)(=O)c4ccc(N[C@H](CCN5CCOCC5)CSc5ccccc5)c(S(=O)(=O)C(F)(F)F)c4)cc3)CC2)C1 [Navitoclax] (partner 0.5 µM)
An outline of the steps: as §1

Compound in the experiment “Olaparib + Decitabine”: O=C(c1cc(Cc2n[nH]c(=O)c3ccccc23)ccc1F)N1CCN(C(=O)C2CC2)CC1 [Olaparib] + Nc1ncn([C@H]2C[C@H](O)[C@@H](CO)O2)c(=O)n1 [Decitabine] (partner 2 µM)
The method in brief:
as §1

On to NCI-H1944, for which the relative viability came out at 0.214 with Carfilzomib + Dasatinib (first compound 0.001 µM); 0.233 with Carfilzomib + Dasatinib (first compound 0.003162 µM); 0.186 with Carfilzomib + Dasatinib (first compound 0.01 µM); 0.203 with Carfilzomib + Dasatinib (first compound 0.03162 µM); 0.135 in the experiment with Carfilzomib + Dasatinib (first compound 0.1 µM); 0.408 with Crizotinib + Trametinib (first compound 0.01 µM). In addition, the relative viability in the experiment with Crizotinib + Trametinib (first compound 0.03162 µM) worked out at 0.426; in the experiment with Crizotinib + Trametinib (first compound 0.1 µM), 0.428; in the experiment with Crizotinib + Trametinib (first compound 0.3162 µM), 0.372; in the experiment with Crizotinib + Trametinib (first compound 1 µM), 0.417; with Crizotinib + Navitoclax (first compound 0.01 µM), 1.01; with Crizotinib + Navitoclax (first compound 0.03162 µM) it was 0.995. In addition, the relative viability with Crizotinib + Navitoclax (first compound 0.1 µM) is 1; with Crizotinib + Navitoclax (first compound 0.3162 µM) it was 1.03; in the experiment with Crizotinib + Navitoclax (first compound 1 µM) it was 1.05; with Olaparib + Decitabine (first compound 0.08 µM), 0.397; with Olaparib + Decitabine (first compound 0.253 µM) it was 0.401; in the experiment with Olaparib + Decitabine (first compound 2.53 µM), 0.336. Besides, the relative viability in the experiment with Olaparib + Decitabine (first compound 8 µM) was found to be 0.273.

As to NCI-H3122, the relative viability is 0.868 in the experiment with Carfilzomib + Dasatinib (first compound 0.001 µM); 0.925 in the experiment with Carfilzomib + Dasatinib (first compound 0.003162 µM); 0.909 in the experiment with Carfilzomib + Dasatinib (first compound 0.01 µM); 0.69 with Carfilzomib + Dasatinib (first compound 0.03162 µM); 0.162 with Carfilzomib + Dasatinib (first compound 0.1 µM); 0.207 with Crizotinib + Trametinib (first compound 0.01 µM). The relative viability with Crizotinib + Trametinib (first compound 0.03162 µM) was determined as 0.219; with Crizotinib + Trametinib (first compound 0.1 µM), 0.197; with Crizotinib + Trametinib (first compound 0.3162 µM), 0.21; with Crizotinib + Trametinib (first compound 1 µM), 0.238; with Crizotinib + Navitoclax (first compound 0.01 µM), 0.99; with Crizotinib + Navitoclax (first compound 0.03162 µM), 0.993. Moreover, the relative viability amounted to 1.04 in the experiment with Crizotinib + Navitoclax (first compound 0.1 µM); 1.02 with Crizotinib + Navitoclax (first compound 0.3162 µM); 0.385 in the experiment with Olaparib + Decitabine (first compound 0.08 µM); 0.351 with Olaparib + Decitabine (first compound 0.253 µM); 0.259 with Olaparib + Decitabine (first compound 2.53 µM); 0.256 in the experiment with Olaparib + Decitabine (first compound 8 µM).

Regarding LCLC-97TM1, the relative viability with Carfilzomib + Dasatinib (first compound 0.001 µM) worked out at 0.776; with Carfilzomib + Dasatinib (first compound 0.003162 µM), 0.89; with Carfilzomib + Dasatinib (first compound 0.01 µM), 0.837; with Carfilzomib + Dasatinib (first compound 0.03162 µM), 0.774; with Carfilzomib + Dasatinib (first compound 0.1 µM), 0.397; in the experiment with Crizotinib + Trametinib (first compound 0.01 µM), 0.189. Also, the relative viability in the experiment with Crizotinib + Trametinib (first compound 0.03162 µM) turned out to be 0.173; with Crizotinib + Trametinib (first compound 0.1 µM) it was 0.209; with Crizotinib + Trametinib (first compound 0.3162 µM), 0.173; with Crizotinib + Trametinib (first compound 1 µM), 0.196; with Crizotinib + Navitoclax (first compound 0.01 µM), 0.318; with Crizotinib + Navitoclax (first compound 0.03162 µM), 0.39. Also, the relative viability is 0.341 in the experiment with Crizotinib + Navitoclax (first compound 0.1 µM); 0.317 with Crizotinib + Navitoclax (first compound 0.3162 µM); 0.404 with Crizotinib + Navitoclax (first compound 1 µM); 0.193 with Olaparib + Decitabine (first compound 0.08 µM); 0.143 with Olaparib + Decitabine (first compound 0.253 µM); 0.165 with Olaparib + Decitabine (first compound 2.53 µM). Moreover, the relative viability in the experiment with Olaparib + Decitabine (first compound 8 µM) came to 0.178.

LXF-289: the relative viability with Carfilzomib + Dasatinib (first compound 0.001 µM) is 0.151; in the experiment with Carfilzomib + Dasatinib (first compound 0.003162 µM) it was 0.312; with Carfilzomib + Dasatinib (first compound 0.01 µM), 0.192; with Carfilzomib + Dasatinib (first compound 0.03162 µM), 0.0373; with Carfilzomib + Dasatinib (first compound 0.1 µM) it was 0.0553; with Crizotinib + Trametinib (first compound 0.01 µM) it was 0.666. The relative viability with Crizotinib + Trametinib (first compound 0.03162 µM) was determined as 0.668; with Crizotinib + Trametinib (first compound 0.1 µM), 0.726; with Crizotinib + Trametinib (first compound 0.3162 µM) it was 0.57; with Crizotinib + Trametinib (first compound 1 µM), 0.693; with Crizotinib + Navitoclax (first compound 0.01 µM), 0.856; with Crizotinib + Navitoclax (first compound 0.03162 µM), 0.931. Also, the relative viability in the experiment with Crizotinib + Navitoclax (first compound 0.3162 µM) was 0.879; with Crizotinib + Navitoclax (first compound 1 µM) it was 0.939; with Olaparib + Decitabine (first compound 0.08 µM), 0.336; with Olaparib + Decitabine (first compound 0.253 µM) it was 0.302; with Olaparib + Decitabine (first compound 2.53 µM), 0.272; with Olaparib + Decitabine (first compound 8 µM) it was 0.232.

In the case of HCC-78, the relative viability with Carfilzomib + Dasatinib (first compound 0.001 µM) is 0.228; in the experiment with Carfilzomib + Dasatinib (first compound 0.003162 µM), 0.459; with Carfilzomib + Dasatinib (first compound 0.01 µM), 0.323; with Carfilzomib + Dasatinib (first compound 0.03162 µM) it was 0.435; in the experiment with Carfilzomib + Dasatinib (first compound 0.1 µM) it was 0.2; with Crizotinib + Trametinib (first compound 0.01 µM), 0.631. Also, the relative viability is 0.873 with Crizotinib + Trametinib (first compound 0.03162 µM); 0.723 with Crizotinib + Trametinib (first compound 0.1 µM); 0.706 in the experiment with Crizotinib + Trametinib (first compound 0.3162 µM); 0.909 in the experiment with Crizotinib + Trametinib (first compound 1 µM); 0.774 with Crizotinib + Navitoclax (first compound 0.01 µM); 0.738 in the experiment with Crizotinib + Navitoclax (first compound 0.03162 µM). Also, the relative viability was 0.749 with Crizotinib + Navitoclax (first compound 0.1 µM); 0.685 in the experiment with Crizotinib + Navitoclax (first compound 0.3162 µM); 0.628 in the experiment with Crizotinib + Navitoclax (first compound 1 µM); 0.613 with Olaparib + Decitabine (first compound 0.08 µM); 0.562 with Olaparib + Decitabine (first compound 0.253 µM); 0.508 in the experiment with Olaparib + Decitabine (first compound 2.53 µM). Further, in the experiment with Olaparib + Decitabine (first compound 8 µM), the relative viability amounted to 0.455.

With NCI-H2405, the relative viability is 0.218 with Carfilzomib + Dasatinib (first compound 0.003162 µM); 0.203 in the experiment with Carfilzomib + Dasatinib (first compound 0.01 µM); 0.247 with Carfilzomib + Dasatinib (first compound 0.03162 µM); 0.188 with Carfilzomib + Dasatinib (first compound 0.1 µM); 0.537 in the experiment with Crizotinib + Trametinib (first compound 0.01 µM); 0.636 in the experiment with Crizotinib + Trametinib (first compound 0.03162 µM). Besides, the relative viability with Crizotinib + Trametinib (first compound 0.1 µM) turned out to be 0.657; with Crizotinib + Trametinib (first compound 0.3162 µM), 0.619; with Crizotinib + Trametinib (first compound 1 µM), 0.711; with Crizotinib + Navitoclax (first compound 0.01 µM), 0.816; in the experiment with Crizotinib + Navitoclax (first compound 0.03162 µM) it was 0.815; with Crizotinib + Navitoclax (first compound 0.1 µM), 0.79. Besides, the relative viability came to 0.858 with Crizotinib + Navitoclax (first compound 0.3162 µM); 0.862 in the experiment with Crizotinib + Navitoclax (first compound 1 µM); 0.681 with Olaparib + Decitabine (first compound 0.08 µM); 0.55 in the experiment with Olaparib + Decitabine (first compound 0.253 µM); 0.458 with Olaparib + Decitabine (first compound 2.53 µM); 0.486 with Olaparib + Decitabine (first compound 8 µM).

Consider NCI-H727, for which the relative viability with Carfilzomib + Dasatinib (first compound 0.001 µM) was determined as 0.386; with Carfilzomib + Dasatinib (first compound 0.003162 µM), 0.333; with Carfilzomib + Dasatinib (first compound 0.01 µM), 0.491; in the experiment with Carfilzomib + Dasatinib (first compound 0.03162 µM), 0.216; with Carfilzomib + Dasatinib (first compound 0.1 µM), 0.174; in the experiment with Crizotinib + Trametinib (first compound 0.01 µM), 0.356. The relative viability with Crizotinib + Trametinib (first compound 0.03162 µM) is 0.427; with Crizotinib + Trametinib (first compound 0.1 µM) it was 0.344; in the experiment with Crizotinib + Trametinib (first compound 0.3162 µM), 0.434; with Crizotinib + Trametinib (first compound 1 µM), 0.381; with Crizotinib + Navitoclax (first compound 0.01 µM) it was 0.394; with Crizotinib + Navitoclax (first compound 0.03162 µM), 0.459. Besides, the relative viability is 0.505 in the experiment with Crizotinib + Navitoclax (first compound 0.1 µM); 0.436 with Crizotinib + Navitoclax (first compound 0.3162 µM); 0.393 with Crizotinib + Navitoclax (first compound 1 µM); 0.908 with Olaparib + Decitabine (first compound 0.08 µM); 0.858 with Olaparib + Decitabine (first compound 0.253 µM); 0.893 with Olaparib + Decitabine (first compound 2.53 µM). In addition, the relative viability with Olaparib + Decitabine (first compound 8 µM) is 0.805.

As to LC-2-ad, the relative viability in the experiment with Carfilzomib + Dasatinib (first compound 0.001 µM) turned out to be 0.475; with Carfilzomib + Dasatinib (first compound 0.003162 µM), 0.711; in the experiment with Carfilzomib + Dasatinib (first compound 0.01 µM), 0.796; with Carfilzomib + Dasatinib (first compound 0.03162 µM), 0.475; with Carfilzomib + Dasatinib (first compound 0.1 µM) it was 0.256; with Crizotinib + Trametinib (first compound 0.01 µM), 0.899. The relative viability with Crizotinib + Trametinib (first compound 0.03162 µM) was 0.985; with Crizotinib + Trametinib (first compound 1 µM) it was 0.892; in the experiment with Crizotinib + Navitoclax (first compound 0.01 µM), 0.412; with Crizotinib + Navitoclax (first compound 0.03162 µM) it was 0.432; with Crizotinib + Navitoclax (first compound 0.1 µM) it was 0.44; with Crizotinib + Navitoclax (first compound 1 µM), 0.442. In addition, the relative viability with Olaparib + Decitabine (first compound 0.08 µM) is 0.618; in the experiment with Olaparib + Decitabine (first compound 0.253 µM), 0.623; with Olaparib + Decitabine (first compound 2.53 µM) it was 0.557; with Olaparib + Decitabine (first compound 8 µM), 0.509.
